Measured values reported in patent US20260008768A1, “UREA DERIVATIVES FOR INHIBITING NLRP3 AND USES THEREOF” (VENTUS THERAPEUTICS U.S., INC., priority 2023, published 2026).

Columns and labels:
human NLRP3 = human NLRP3 (Homo sapiens, UniProt Q96P20); test: Human PBMC NLRP3 Assay (LPS priming, ATP stimulation, cytokine measurement); type: cell-based; set-up: host or cells: human PBMCs (A2); human whole blood from healthy volunteers (A3); details: for IC50: human PBMC, LPS + ATP
How it was run: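 Human PBMCs (5×10^4/well) primed with 100 ng/ml LPS for 4 h, then given compound for 30 min and stimulated with 5 mM ATP for 1 h at 37° C. Supernatant cytokines measured on the Mesoscale platform to give IC50. For TNFα selectivity, compound was added 30 min before LPS priming.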

mouse NLRP3 = target: T1, mouse NLRP3 (Mus musculus, UniProt Q8R4B8); test: Mouse Whole Blood (mWB) NLRP3 Assay (LPS/ATP, IL-1b); type: cell-based
T1 construct: from tissue; host or cells: whole blood of female CD1 mice
T1 sequence (Q8R4B8 whole entry): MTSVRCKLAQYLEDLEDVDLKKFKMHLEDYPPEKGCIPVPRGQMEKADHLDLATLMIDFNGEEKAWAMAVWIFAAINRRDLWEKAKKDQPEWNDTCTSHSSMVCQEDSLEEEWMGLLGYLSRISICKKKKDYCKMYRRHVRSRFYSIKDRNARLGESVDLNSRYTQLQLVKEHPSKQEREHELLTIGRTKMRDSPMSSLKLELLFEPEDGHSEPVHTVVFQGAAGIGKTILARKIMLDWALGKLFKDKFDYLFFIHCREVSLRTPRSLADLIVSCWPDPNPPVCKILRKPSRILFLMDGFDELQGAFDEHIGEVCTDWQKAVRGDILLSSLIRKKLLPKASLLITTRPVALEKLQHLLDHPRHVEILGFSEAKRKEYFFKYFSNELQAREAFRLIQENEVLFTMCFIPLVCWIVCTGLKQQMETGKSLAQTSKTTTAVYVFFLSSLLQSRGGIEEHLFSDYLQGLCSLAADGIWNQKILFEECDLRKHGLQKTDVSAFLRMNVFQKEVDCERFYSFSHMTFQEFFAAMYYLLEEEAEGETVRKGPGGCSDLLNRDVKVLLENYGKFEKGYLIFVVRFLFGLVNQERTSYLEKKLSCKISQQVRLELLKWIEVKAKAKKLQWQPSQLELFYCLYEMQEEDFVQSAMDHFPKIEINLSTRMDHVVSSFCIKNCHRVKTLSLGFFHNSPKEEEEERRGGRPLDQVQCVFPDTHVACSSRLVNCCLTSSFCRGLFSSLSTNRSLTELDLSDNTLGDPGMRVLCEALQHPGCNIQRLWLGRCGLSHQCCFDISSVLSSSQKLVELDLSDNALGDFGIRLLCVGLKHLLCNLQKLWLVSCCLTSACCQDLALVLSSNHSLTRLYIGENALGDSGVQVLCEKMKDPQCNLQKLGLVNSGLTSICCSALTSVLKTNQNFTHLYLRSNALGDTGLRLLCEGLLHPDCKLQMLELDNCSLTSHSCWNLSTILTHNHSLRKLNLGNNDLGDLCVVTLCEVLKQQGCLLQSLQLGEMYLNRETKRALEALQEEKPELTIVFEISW
Protocol: Reagents: The following reagents were used: blood collection tubes (Heparin); U-bottom 96-well tissue culture (Falcon 353077); HBSS for LPS, ATP and compound dilutions (Gibco 24020-117); and LPS, E. coli serotype O26:B6 (Sigma L-2654).
Mouse IL-1b MSD assay: Blood was drawn from female CD1 mice (9 to 10 weeks) by cardiac puncture. Blood was plated (135 μL) per well in 96-well U-bottom plates. 7.5 μL of 20×LPS (20 μg/mL, final concentration of 1 μg/mL) was added and mixed by gentle pipetting, and the mixture was incubated in a TC incubator for five hours. 7.5 μL of 20× compound or vehicle per well was added and mixed by gentle pipetting. Compounds were diluted 1/50 in HBSS to prepare a 20× dilution curve in 2% DMSO. The mixture was incubated for 30 minutes in a TC incubator with shaking (450 rpm). 5 μl of 31×ATP (155 mM, final concentration of 5 mM) was added and mixed by gentle pipetting. The mixture was incubated in a TC incubator for 30 minutes with shaking (450 rpm). The plate was centrifuged for 10 minutes at 800×g and ˜70 μL of plasma was removed. Plasma was frozen if required. Mouse IL-1b was analyzed with IL-1b MSD assay (K152TUK).
Compounds were added 30 minutes before priming the cells with LPS when TNFα was required to be quantified in the cytokine panel to confirm selectivity.
mWB NLRP3 IC50 assay results, as a measurement of whole blood potency, are provided in Table B. “A” activity=<1 uM; “B” activity=1-2 uM; “C” activity=>2-3 uM; “D” activity=>3 uM.

Sequence of human NLRP3 (Q96P20 whole entry): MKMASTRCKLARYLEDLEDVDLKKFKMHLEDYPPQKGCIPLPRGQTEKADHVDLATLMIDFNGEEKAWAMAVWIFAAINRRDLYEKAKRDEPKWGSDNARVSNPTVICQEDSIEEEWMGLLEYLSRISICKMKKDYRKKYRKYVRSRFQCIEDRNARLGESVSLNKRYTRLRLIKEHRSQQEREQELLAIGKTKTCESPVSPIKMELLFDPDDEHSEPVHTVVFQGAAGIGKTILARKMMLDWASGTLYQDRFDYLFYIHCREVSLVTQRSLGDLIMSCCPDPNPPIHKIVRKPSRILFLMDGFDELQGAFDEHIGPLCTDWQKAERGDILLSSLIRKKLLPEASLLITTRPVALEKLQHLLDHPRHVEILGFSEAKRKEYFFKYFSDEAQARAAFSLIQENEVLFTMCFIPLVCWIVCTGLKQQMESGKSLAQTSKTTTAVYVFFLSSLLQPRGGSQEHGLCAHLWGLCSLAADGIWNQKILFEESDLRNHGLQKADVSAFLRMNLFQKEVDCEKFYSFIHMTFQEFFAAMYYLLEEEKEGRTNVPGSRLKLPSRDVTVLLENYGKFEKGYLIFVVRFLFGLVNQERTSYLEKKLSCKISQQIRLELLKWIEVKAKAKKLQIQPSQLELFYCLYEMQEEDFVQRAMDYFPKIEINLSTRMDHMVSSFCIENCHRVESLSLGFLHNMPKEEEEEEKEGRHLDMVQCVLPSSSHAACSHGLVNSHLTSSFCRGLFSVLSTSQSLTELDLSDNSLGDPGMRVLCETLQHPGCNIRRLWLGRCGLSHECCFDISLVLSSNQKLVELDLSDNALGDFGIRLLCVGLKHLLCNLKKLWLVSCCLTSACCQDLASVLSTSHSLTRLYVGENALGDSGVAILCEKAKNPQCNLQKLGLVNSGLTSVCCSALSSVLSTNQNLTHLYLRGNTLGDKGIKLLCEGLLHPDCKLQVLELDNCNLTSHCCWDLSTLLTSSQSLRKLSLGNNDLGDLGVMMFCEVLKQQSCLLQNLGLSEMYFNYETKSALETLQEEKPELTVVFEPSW

IC50 (human NLRP3; Table B, activity class) | IC50 (human NLRP3; Table C) | IC50 (mouse NLRP3; Table B, activity class) | IC50 (mouse NLRP3; Table C) | fold improvement in potency (PBMC IC50) (human NLRP3; relative to Comparative Example B1) | SMILES
< 10 nM | 9.1 nM | < 1000 nM | 95 nM | – | C[C@@H]1CCN(c2nnn[nH]2)C[C@H](NC(=O)N(C)c2ccc(OC(F)(F)F)cc2)C1 (single isomer, unassigned) [10A*]
< 10 nM | 4.2 nM | < 1000 nM | 26 nM | – | C[C@@H]1CCN(c2nnn[nH]2)C[C@H](NC(=O)N(C)c2ccc(OC(F)F)cc2)C1 (single isomer, unassigned) [11A*]
< 10 nM | 6.8 nM | < 1000 nM | 40 nM | > 700 fold | C[C@@H]1CCN(c2nnn[nH]2)C[C@H](NC(=O)N(C)c2ccc(Cl)cc2)C1 (single isomer, unassigned) [4A*]
